Assay results published in the NIST ThermoML archive (doi:10.1021/je200668a).
Numbers after ± are expanded uncertainties.

Details: Liquid, Pulse Transmission

O [water]
speed of sound (318.1 K, 349600 kPa): 2061 ± 3.1 m/s | speed of sound (318.1 K, 449800 kPa): 2181.8 ± 3.3 m/s | speed of sound (318.11 K, 150100 kPa): 1787.1 ± 2.5 m/s | speed of sound (318.11 K, 160100 kPa): 1802.4 ± 2.5 m/s | speed of sound (318.11 K, 250600 kPa): 1930.2 ± 2.8 m/s | speed of sound (318.12 K, 50400 kPa): 1623.1 ± 1.9 m/s | speed of sound (318.12 K, 299900 kPa): 1996.4 ± 2.9 m/s | speed of sound (318.12 K, 599100 kPa): 2350.3 ± 3.7 m/s | speed of sound (318.12 K, 599600 kPa): 2346.3 ± 3.7 m/s | speed of sound (318.12 K, 641800 kPa): 2388.1 ± 3.8 m/s | speed of sound (318.13 K, 250400 kPa): 1930.2 ± 2.8 m/s | speed of sound (318.13 K, 399600 kPa): 2121.7 ± 3.2 m/s | speed of sound (318.14 K, 111200 kPa): 1725.7 ± 2.4 m/s | speed of sound (318.14 K, 449700 kPa): 2182.1 ± 3.3 m/s | speed of sound (318.14 K, 701800 kPa): 2454.2 ± 3.9 m/s | speed of sound (318.15 K, 250000 kPa): 1930.6 ± 2.8 m/s | speed of sound (318.15 K, 651000 kPa): 2405.8 ± 3.8 m/s | speed of sound (318.16 K, 100 kPa): 1530.9 ± 2 m/s | speed of sound (318.16 K, 401300 kPa): 2123.6 ± 3.2 m/s | speed of sound (318.16 K, 549200 kPa): 2297.1 ± 3.6 m/s | speed of sound (318.16 K, 559300 kPa): 2305.4 ± 3.6 m/s | speed of sound (318.17 K, 50000 kPa): 1622.5 ± 1.9 m/s | speed of sound (318.17 K, 499100 kPa): 2239.1 ± 3.5 m/s | speed of sound (318.17 K, 499800 kPa): 2240.9 ± 3.5 m/s | speed of sound (318.17 K, 549400 kPa): 2295.5 ± 3.6 m/s | speed of sound (318.18 K, 450600 kPa): 2183.6 ± 3.3 m/s | speed of sound (318.18 K, 702400 kPa): 2453.8 ± 3.9 m/s | speed of sound (318.19 K, 200200 kPa): 1861.8 ± 2.7 m/s | speed of sound (318.19 K, 499900 kPa): 2239.9 ± 3.5 m/s | speed of sound (318.19 K, 651200 kPa): 2401.2 ± 3.8 m/s | speed of sound (318.19 K, 701700 kPa): 2454.7 ± 3.9 m/s | speed of sound (318.21 K, 99700 kPa): 1706.9 ± 2.3 m/s | speed of sound (318.21 K, 602100 kPa): 2348.1 ± 3.7 m/s | speed of sound (318.22 K, 150400 kPa): 1788.9 ± 2.5 m/s | speed of sound (318.26 K, 49100 kPa): 1621.2 ± 1.9 m/s | speed of sound (327.92 K, 641400 kPa): 2396.1 ± 3.8 m/s | speed of sound (327.96 K, 560500 kPa): 2312.8 ± 3.6 m/s | speed of sound (327.97 K, 701700 kPa): 2451.4 ± 4 m/s | speed of sound (328.07 K, 550700 kPa): 2301.2 ± 3.7 m/s | speed of sound (328.08 K, 109200 kPa): 1735.6 ± 2.4 m/s | speed of sound (328.08 K, 350700 kPa): 2075.4 ± 3.1 m/s | speed of sound (328.08 K, 499600 kPa): 2246.7 ± 3.7 m/s | speed of sound (328.1 K, 150000 kPa): 1799.2 ± 2.5 m/s | speed of sound (328.12 K, 100100 kPa): 1720.7 ± 2.3 m/s | speed of sound (328.13 K, 200200 kPa): 1875.4 ± 2.6 m/s | speed of sound (328.14 K, 50900 kPa): 1636.9 ± 2.2 m/s | speed of sound (328.14 K, 300800 kPa): 2013.9 ± 3.2 m/s | speed of sound (328.14 K, 450900 kPa): 2192 ± 4.3 m/s | speed of sound (328.15 K, 300000 kPa): 2015.6 ± 3.2 m/s | speed of sound (328.16 K, 159900 kPa): 1816 ± 2.6 m/s | speed of sound (328.16 K, 351700 kPa): 2077.1 ± 3.1 m/s | speed of sound (328.16 K, 399700 kPa): 2133 ± 3.7 m/s | speed of sound (328.16 K, 499400 kPa): 2246.5 ± 3.7 m/s | speed of sound (328.16 K, 601200 kPa): 2355.9 ± 3.7 m/s | speed of sound (328.16 K, 601900 kPa): 2353.3 ± 3.7 m/s | speed of sound (328.16 K, 700100 kPa): 2453.2 ± 4 m/s | speed of sound (328.17 K, 50600 kPa): 1636.4 ± 2.3 m/s | speed of sound (328.17 K, 200900 kPa): 1876.4 ± 2.6 m/s | speed of sound (328.18 K, 250700 kPa): 1946.5 ± 2.8 m/s | speed of sound (328.19 K, 100 kPa): 1541.1 ± 2.2 m/s | speed of sound (328.19 K, 250700 kPa): 1947.4 ± 2.9 m/s | speed of sound (328.21 K, 449800 kPa): 2189.2 ± 4.3 m/s | speed of sound (328.21 K, 652700 kPa): 2406.9 ± 3.8 m/s | speed of sound (328.22 K, 400100 kPa): 2137.3 ± 3.6 m/s | speed of sound (328.27 K, 100 kPa): 1542.1 ± 2.1 m/s | speed of sound (328.49 K, 99800 kPa): 1720.6 ± 2.4 m/s | speed of sound (328.66 K, 650700 kPa): 2404.5 ± 3.8 m/s | speed of sound (328.69 K, 300000 kPa): 2012.1 ± 3.4 m/s | speed of sound (328.72 K, 200100 kPa): 1874.3 ± 2.7 m/s | speed of sound (328.72 K, 400500 kPa): 2138.4 ± 3.2 m/s | speed of sound (328.72 K, 551000 kPa): 2304.7 ± 3.7 m/s | speed of sound (328.73 K, 50900 kPa): 1637.5 ± 2 m/s | speed of sound (328.74 K, 449200 kPa): 2194.3 ± 3.8 m/s | speed of sound (328.76 K, 100 kPa): 1543.9 ± 2.1 m/s | speed of sound (328.76 K, 601300 kPa): 2354.9 ± 3.7 m/s | speed of sound (328.77 K, 350900 kPa): 2076.6 ± 3.1 m/s | speed of sound (328.77 K, 700400 kPa): 2453.8 ± 4 m/s | speed of sound (328.83 K, 150100 kPa): 1799.9 ± 2.4 m/s | speed of sound (328.9 K, 250100 kPa): 1944.4 ± 2.9 m/s | speed of sound (328.92 K, 499400 kPa): 2250.4 ± 3.6 m/s | speed of sound (337.66 K, 150000 kPa): 1810.9 ± 2.3 m/s | speed of sound (337.69 K, 350500 kPa): 2086.1 ± 2.7 m/s | speed of sound (337.69 K, 399100 kPa): 2142.9 ± 2.8 m/s | speed of sound (337.75 K, 200500 kPa): 1886 ± 2.3 m/s | speed of sound (337.8 K, 501100 kPa): 2260 ± 3 m/s | speed of sound (337.85 K, 300700 kPa): 2024 ± 2.6 m/s | speed of sound (337.87 K, 50100 kPa): 1643.6 ± 2 m/s | speed of sound (337.95 K, 100500 kPa): 1731.6 ± 2.1 m/s | speed of sound (338.02 K, 100 kPa): 1547.4 ± 1.8 m/s | speed of sound (338.04 K, 601100 kPa): 2360.1 ± 3.2 m/s | speed of sound (338.07 K, 650600 kPa): 2410.2 ± 3.3 m/s | speed of sound (338.12 K, 451000 kPa): 2203.4 ± 2.9 m/s | speed of sound (338.15 K, 250300 kPa): 1956.7 ± 2.5 m/s | speed of sound (338.22 K, 549600 kPa): 2309.8 ± 3.1 m/s | speed of sound (338.22 K, 700800 kPa): 2455.7 ± 3.4 m/s | speed of sound (349.03 K, 601700 kPa): 2366 ± 3.2 m/s | speed of sound (349.12 K, 500600 kPa): 2267.1 ± 3 m/s | speed of sound (349.18 K, 49900 kPa): 1647.8 ± 2 m/s | speed of sound (349.19 K, 100 kPa): 1549 ± 1.8 m/s | speed of sound (349.22 K, 150700 kPa): 1818.4 ± 2.3 m/s | speed of sound (349.22 K, 300400 kPa): 2029.7 ± 2.6 m/s | speed of sound (349.27 K, 549200 kPa): 2313.8 ± 3.1 m/s | speed of sound (349.28 K, 400700 kPa): 2153 ± 2.9 m/s | speed of sound (349.3 K, 250900 kPa): 1965 ± 2.5 m/s | speed of sound (349.32 K, 349800 kPa): 2091.6 ± 2.7 m/s | speed of sound (349.35 K, 450800 kPa): 2209.4 ± 3 m/s | speed of sound (349.41 K, 100400 kPa): 1737.3 ± 2.1 m/s | speed of sound (349.59 K, 651400 kPa): 2412.5 ± 3.3 m/s | speed of sound (349.68 K, 200700 kPa): 1892.8 ± 2.4 m/s | speed of sound (349.72 K, 704500 kPa): 2445.1 ± 3.4 m/s
